The test system of assay [1] is GIP receptor. As to conditions: cited from earlier work.
The test system of assay [2] is GIP receptor. As to conditions: cited from earlier work. This is another data set of the same source.
For assay [3] the following is noted: cited from earlier work; for biological activity: truncated forms of GIP.
Assay [4] deals with T1, GIP receptors (Homo sapiens, UniProt P48546).
T1 construct: from tissue; host or cells: fresh frozen human tumor tissue (neuroendocrine tumors) and non-neoplastic human tissue (pancreatic islets) from surgical resection
T1 sequence (P48546 22-466): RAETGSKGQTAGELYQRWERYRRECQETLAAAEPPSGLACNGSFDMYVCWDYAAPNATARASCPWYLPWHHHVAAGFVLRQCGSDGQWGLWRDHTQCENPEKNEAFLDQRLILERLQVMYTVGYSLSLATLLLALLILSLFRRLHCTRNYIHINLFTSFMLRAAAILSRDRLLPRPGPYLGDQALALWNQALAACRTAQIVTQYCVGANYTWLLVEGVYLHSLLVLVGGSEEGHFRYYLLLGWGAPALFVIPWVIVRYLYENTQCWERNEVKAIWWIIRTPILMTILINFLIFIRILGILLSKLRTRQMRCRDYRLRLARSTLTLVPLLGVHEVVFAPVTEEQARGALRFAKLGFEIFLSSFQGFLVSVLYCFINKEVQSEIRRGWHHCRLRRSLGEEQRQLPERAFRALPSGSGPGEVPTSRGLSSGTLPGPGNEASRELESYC
As to the kind of experiment: In vitro GIP receptor autoradiography: displacement of 125I-GIP(1-30) in tissue sections. The format is binding. As to conditions: increasing concentrations of cold peptide; tumor and normal pancreatic islets, all examples. As to the method:
It was radiolabeled by the lactoperoxidase method and purified by HPLC (Anawa, Wangen, Switzerland). The two lodo-Tyrosine analogues (peak 1 iodinated at Tyr^1 and peak 2 iodinated at Tyr^10) were analyzed by LC-ESI-MS-MS (R. Brunisholz, Functional Genomics Center Zürich, ETHZ). […] After incubation, the slides were washed five times in ice-cold Tris-HCl buffer (170 mM; pH 8.2) containing 0.25% BSA and twice in ice-cold Tris-HCl buffer without BSA. The slides were dried for 15 minutes under a stream of cold air and then exposed to Kodak films Biomax MR® for seven days at 4° C. The signals on the films were analyzed in correlation with morphology using corresponding H&E stained tissue slides. The receptor density was quantitatively assessed using tissue standards for iodinated compounds (Amersham, Aylesbury, UK) and a computer-assisted image processing system (Analysis Imaging System, Interfocus, Mering, Germany).
(Displacement assays read how much labelled ligand stays bound in the presence of the test substance.)

The test system of assay [5] is islet cells. Briefly: β-Cell imaging with GIP radioligands, ex vivo pancreas autoradiography. In kind it is in vivo, Sprague-Dawley rats. As to conditions: i.v., with or without unlabeled GIP(1-30); autoradiography correlated with insulin immunostaining. From the text: Animals were euthanized and the pancreas was extracted, immediately frozen, and sectioned. The sections were apposed to radiosensitive films, scanned, and immunostained for insulin.

Assay [6] has as its system TT cells (human medullary thyroid cancer cells). The settings on record: 1 nM to 1000 nM GIP for 3 hours, supernatant.
Procedure: Calcitonin levels (C, pg/ml) were determined from the cell supernatant using the Calcitonin-kit from Siemens.
TT cells (derived from a human medullary thyroid carcinoma; ATCC Number: CRL-1803) were plated in 24-well plates (100′000 cells per well) and cultured for 48 hours in growth medium (nutrient mixture F12 Ham Kaighn's modification containing L-glutamine and supplemented with 10% fetal bovine serum) at 37° C. and 5% CO2. Subsequently the growth medium was replaced by the serum-free challenge medium (RPMI 1640, 10 mM HEPES and GlutaMax-I) and the cells were incubated for further 48 hours at 37° C. and 5% CO2. […] As negative control cells were treated with challenge medium containing vehicle alone. The cells were incubated for 3 hours at 37° C. and 5% CO2.

Take “GIP1-14: GIP fragment capable of receptor binding (YAEGTFISDYSIAM; Gastric inhibitory polypeptide; UniProt P09681 52-65, looked up, fragment)”: the receptor binding result in assay [1] is on record as “capable of receptor binding”. The “activation of adenylyl cyclase” value in assay [2] was “activation of adenylyl cyclase”.

Regarding “GIP1-39: truncated form of GIP (YAEGTFISDYSIAMDKIHQQDFVNWLLAQKGKKNDWKHN; Gastric inhibitory polypeptide; UniProt P09681 52-90, looked up, fragment)”, the biological activity result in assay [3] was “retain a high degree of biological activity”.

As to “GIP3-42: peptide resulting from cleavage of GIP by DPP-IV; antagonist (EGTFISDYSIAMDKIHQQDFVNWLLAQKGKKNDWKHNITQ; Gastric inhibitory polypeptide; UniProt P09681 54-93, looked up, fragment)”, the insulinotropic activity result in assay [3] (product of DPP-IV cleavage) is “lacking insulinotropic activity”. For the same substance, the “functional mode at the GIP receptor” value in assay [2] is “antagonist of GIP1-42 induced cAMP production”.

For the substance “GIP6-30: GIP fragment binding with high affinity, antagonist (FISDYSIAMDKIHQQDFVNWLLAQK; Gastric inhibitory polypeptide; UniProt P09681 57-81, looked up, fragment)”, the receptor binding result in assay [1] is reported as “high affinity”. For the same substance, the “functional mode at the GIP receptor” value in assay [2] is “act as antagonists”.

For the substance “GIP7-30-NH2: GIP fragment amide binding with high affinity, antagonist”, the receptor binding result in assay [1] is reported as “high affinity”. Moreover, the “functional mode at the GIP receptor” value in assay [2] is listed as “act as antagonists”.

Take “GIP19-30: C-terminal GIP fragment capable of receptor binding (QQDFVNWLLAQK; Gastric inhibitory polypeptide; UniProt P09681 70-81, looked up, fragment)”: the receptor binding entry in assay [1] was “capable of receptor binding”. Moreover, the “activation of adenylyl cyclase” value in assay [2] is “activation of adenylyl cyclase”.

For “GIP(1-30): truncated form of GIP; cold human GIP(1-30), parent peptide of the radioligand (YAEGTFISDYSIAMDKIHQQDFVNWLLAQK; Gastric inhibitory polypeptide; UniProt P09681 52-81, looked up, fragment)”, the biological activity result in assay [3] is on record as “retain a high degree of biological activity”.

Take “GLP-2: GLP-2 receptor selective agonist (Bachem)”: in assay [4], the “displacement of 125I-GIP(1-30) (affinity)” value was “not displaced”.

For “^111In-DOTA-GIP(1-30): GIP(1-30) carrying 111In complexed through DOTA chelator; GIP radioligand for β-cell imaging”, the “localisation of radioligand binding in pancreas” value in assay [5] was “restricted to islet cells”.

Consider “glucagon(1-29): glucagon receptor selective agonist (Bachem)”, for which the “displacement of 125I-GIP(1-30) (affinity)” value in assay [4] is given as “not displaced”.

Consider “glucose-dependent insulinotropic polypeptide [GIP]”, for which the calcitonin release result in assay [6] is listed as “stimulates calcitonin release”.

Values taken from patent US20140377171A1, “Imaging and Treatment of Neuroendocrine Tumors with Glucose - Dependent Insulinotropic Polypeptide or Analogues or Antagonists Thereof” (priority 2011, published 2014).
